Measurements from BindingDB's records for doi:10.7270/Q2H70D87 (Nmmlsc, 2011).

Target: 60S ribosomal protein L19-A (Saccharomyces cerevisiae (strain ATCC 204508 / S288c), UniProt P0CX82)
Assay: TOR pathway reporter RPL19A-GFP modulators – cell-based, cherry pick 3, SAR, flow cytometry GFP, multiplex, dose response (AID 488814)
Settings: inactive by the depositor's call

60S ribosomal protein L19-A, sequence (P0CX82 whole entry): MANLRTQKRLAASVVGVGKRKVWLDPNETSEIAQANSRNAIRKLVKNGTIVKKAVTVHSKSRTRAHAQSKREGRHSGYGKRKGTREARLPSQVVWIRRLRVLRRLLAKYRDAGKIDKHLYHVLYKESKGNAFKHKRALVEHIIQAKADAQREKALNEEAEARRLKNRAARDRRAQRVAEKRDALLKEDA

Row | EC50 | SMILES
1 | 55.7 µM | CCOC(=O)CS(=O)(=O)c1nc(-c2ccccc2)cc(C(F)(F)F)n1 [2-[4-phenyl-6-(trifluoromethyl)pyrimidin-2-yl]sulfonylacetic acid ethyl ester]
2 | 38.2 µM | Cc1ccc(C(=O)Nc2nc(-c3ccccn3)cs2)o1 [5-methyl-N-[4-(2-pyridinyl)-2-thiazolyl]-2-furancarboxamide]
